Results reported in patent publication US12227501B2, “3-amino-2-[2-(acylamino)pyridin-4-yl]-1,5,6,7-tetrahydro-4h-pyrrolo[3,2-c]pyridin-4-one as CSNK1 inhibitors” (Bayer Aktiengesellschaft, priority 2019, dated 2025).
Where “and” joins values, the source holds several entries; their conditions need not be identical. Equal values may be shown once. Read-outs that look alike come from different tables or passages of the source.

Columns and labels:
Type in all cases: biochemical
human CSNK1A1 [1] = target: T1, human CSNK1A1 (Homo sapiens (Human), UniProt P48729); assay: CSNK1A1 Assay 2 (ADP-Glo, 1 μM ATP); conditions: substrate biotin-Ahx-KRRRAL-pS-VASLPGL, read-out: CSNK1A1 Assay 2 IC50 [mol/l] (median)
T1 sequence (P48729 whole entry, the tested form may be a part): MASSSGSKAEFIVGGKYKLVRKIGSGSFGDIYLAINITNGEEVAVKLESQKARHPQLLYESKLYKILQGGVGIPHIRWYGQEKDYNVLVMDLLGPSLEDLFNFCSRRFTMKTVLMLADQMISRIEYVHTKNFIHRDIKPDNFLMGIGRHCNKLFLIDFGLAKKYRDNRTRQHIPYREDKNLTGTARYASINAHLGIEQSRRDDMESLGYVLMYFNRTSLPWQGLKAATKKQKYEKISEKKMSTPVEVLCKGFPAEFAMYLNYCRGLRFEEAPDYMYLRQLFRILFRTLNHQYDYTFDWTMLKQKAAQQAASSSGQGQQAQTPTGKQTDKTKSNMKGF
Outline: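 Full-length human CSNK1A1 as an N-terminal GST fusion (baculovirus/insect cells) with biotinylated peptide substrate biotin-Ahx-KRRRAL-pS-VASLPGL and 1 μM ATP, in HEPES pH 7.5 buffer. Compounds were pre-incubated with enzyme (~0.0375 ng/μL) for 15 min at 22 °C. Generated ADP was read by ADP-Glo luminescence as the activity measure.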

human CSNK1A1 [2] = target: T1, human CSNK1A1; assay: CSNK1A1 High ATP Assay (ADP-Glo, 1 mM ATP); conditions: read-out: CSNK1A1 high ATP assay IC50 [mol/l] (median)
Outline: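 GST-tagged full-length human CSNK1A1 from baculovirus-infected insect cells (typically about 0.4 ng/μL), pre-incubated with compound 15 min at 22 °C. Reaction with biotinylated peptide biotin-Ahx-KRRRAL-pS-VASLPGL at 1 mM ATP. ADP formed read by ADP-Glo luminescence.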

human CSNK1D = human CSNK1D (Homo sapiens (Human), UniProt P48730); assay: CSNK1D Assay (ADP-Glo, 1 μM ATP); conditions: read-out: CSNK1D IC50 [mol/l] (median)
Chain of human CSNK1D (P48730 whole entry): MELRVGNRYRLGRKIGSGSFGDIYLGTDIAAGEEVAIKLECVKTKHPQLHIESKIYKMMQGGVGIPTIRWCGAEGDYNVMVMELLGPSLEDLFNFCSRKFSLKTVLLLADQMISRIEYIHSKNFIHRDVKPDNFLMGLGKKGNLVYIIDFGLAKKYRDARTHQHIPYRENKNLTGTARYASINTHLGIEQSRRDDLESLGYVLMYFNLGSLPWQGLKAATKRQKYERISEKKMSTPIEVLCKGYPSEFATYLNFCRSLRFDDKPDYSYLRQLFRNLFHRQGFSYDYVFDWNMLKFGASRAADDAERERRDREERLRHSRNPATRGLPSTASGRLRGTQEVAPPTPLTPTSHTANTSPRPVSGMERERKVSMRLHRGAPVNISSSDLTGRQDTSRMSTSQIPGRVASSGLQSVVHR
Outline: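 GST-tagged full-length human CSNK1D from baculovirus-infected insect cells, typically ~0.5 ng/μL, with biotinylated peptide substrate and 1 μM ATP in HEPES pH 7.5 buffer. Compound is preincubated with enzyme 15 min at 22 °C. ADP formed is quantified by ADP-Glo luminescence.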

[3] = target: wild-type Epidermal Growth Factor Receptor (EGFR) (Homo sapiens (Human), UniProt P00533); assay: WT-EGFR Kinase Assay (TR-FRET, 2 mM ATP)
Chain of wild-type Epidermal Growth Factor Receptor (EGFR) (P00533 669-1210): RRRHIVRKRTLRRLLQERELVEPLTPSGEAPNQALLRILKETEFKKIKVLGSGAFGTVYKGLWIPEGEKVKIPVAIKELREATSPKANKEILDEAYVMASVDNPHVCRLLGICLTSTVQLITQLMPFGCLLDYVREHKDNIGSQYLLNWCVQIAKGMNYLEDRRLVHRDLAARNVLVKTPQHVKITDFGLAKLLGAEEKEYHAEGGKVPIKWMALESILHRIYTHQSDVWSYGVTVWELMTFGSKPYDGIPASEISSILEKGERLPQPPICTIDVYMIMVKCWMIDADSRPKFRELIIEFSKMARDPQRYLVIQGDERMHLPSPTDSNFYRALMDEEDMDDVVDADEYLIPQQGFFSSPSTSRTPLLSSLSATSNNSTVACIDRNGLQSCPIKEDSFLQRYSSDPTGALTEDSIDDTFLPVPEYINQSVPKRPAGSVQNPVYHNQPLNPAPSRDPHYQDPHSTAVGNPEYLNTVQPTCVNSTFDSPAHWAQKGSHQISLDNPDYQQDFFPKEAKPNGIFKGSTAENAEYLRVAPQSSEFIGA

[4] = EGFR Wildtyp- 2 mM ATP IC50 [mol/l] (median)
[5] = read-out: EGFR Wildtyp- 2 mM ATP IC50 [mol/l] (median)

Row | Compound | IC50 (human CSNK1A1 [1]) | IC50 (human CSNK1A1 [2]) | IC50 (human CSNK1D) [nM] | IC50 [3, 4] [nM] | IC50 [3, 5] [nM]
1 | O=C1NC2(CC2)Cc2[nH]c(-c3ccnc(NC(=O)C(CC(F)F)c4ccc(F)cc4)c3)c(Nc3ccccc3)c21 (single isomer, unassigned; enantiomer 1) [Example 148, N-[4-(3′-anilino-4′-oxo-1′,4′,5′,7′-tetrahydrospiro[cyclopropane-1,6′-pyrrolo[3,2-c]pyridin]-2′-yl)pyridin-2-yl]-4,4-difluoro-2-(4-fluorophenyl)butanamide (Enantiomer 1)] | 8.82 nM | 12.8 nM | 8.31 | 3400 | –
2 | CC(C(=O)Nc1cc(-c2[nH]c3c(c2Nc2ccccc2)C(=O)N(C)C2(CCC2)C3)ccn1)c1ccc(F)cc1 (single isomer, unassigned; enantiomer 1) [Example 158, (−)-N-[4-(3′-anilino-5′-methyl-4′-oxo-1′,4′,5′,7′-tetrahydrospiro[cyclobutane-1,6′-pyrrolo[3,2-c]pyridin]-2′-yl)pyridin-2-yl]-2-(4-fluorophenyl)propanamide (Enantiomer 1)] | 239 nM and 263 nM and 52.5 nM and 67.7 nM | > 1630 nM and 5570 nM | 188 | > 20000 | –
3 | CC1(C)Cc2[nH]c(-c3ccnc(NC(=O)C(CC(F)F)c4ccc(F)cc4)c3)c(Nc3cccc(F)c3)c2C(=O)N1 (single isomer, unassigned; enantiomer 2) [Example 121, 4,4-difluoro-N-{4-[3-(3-fluoroanilino)-6,6-dimethyl-4-oxo-4,5,6,7-tetrahydro-1H-pyrrolo[3,2-c]pyridin-2-yl]pyridin-2-yl}-2-(4-fluorophenyl)butanamide (Enantiomer 2)] | 70.1 nM | 10200 nM | 63.5 | – | > 20000
4 | O=C1NC2(CCC2)Cc2[nH]c(-c3ccnc(NC(=O)C(CC(F)F)c4ccc(F)cc4)c3)c(Nc3cccc(F)c3Cl)c21 (single isomer, unassigned; enantiomer 2) [Example 125, (+)-N-{4-[3′-(2-chloro-3-fluoroanilino)-4′-oxo-1′,4′,5′,7′-tetrahydrospiro[cyclobutane-1,6′-pyrrolo[3,2-c]pyridin]-2′-yl]pyridin-2-yl}-4,4-difluoro-2-(4-fluorophenyl)butanamide (Enantiomer 2)] | 10.5 nM | 12.1 nM | 9.39 | – | > 20000
5 | CC1(C)Cc2[nH]c(-c3ccnc(NC(=O)C(CC(F)F)c4ccc(F)cc4)c3)c(Nc3cccc(F)n3)c2C(=O)N1 (single isomer, unassigned; enantiomer 2) [Example 130, 4,4-difluoro-2-(4-fluorophenyl)-N-(4-{3-[(6-fluoropyridin-2-yl)amino]-6,6-dimethyl-4-oxo-4,5,6,7-tetrahydro-1H-pyrrolo[3,2-c]pyridin-2-yl}pyridin-2-yl)butanamide (Enantiomer 2)] | 26.7 nM | 1340 nM | 71.6 | – | > 20000
6 | Cc1ccccc1Nc1c(-c2ccnc(NC(=O)C(C)c3ccc(F)cc3)c2)[nH]c2c1C(=O)NC(C)(C)C2 (single isomer, unassigned; enantiomer 2) [Example 134, N-{4-[6,6-dimethyl-3-(2-methylanilino)-4-oxo-4,5,6,7-tetrahydro-1H-pyrrolo[3,2-c]pyridin-2-yl]pyridin-2-yl}-2-(4-fluorophenyl)propanamide (Enantiomer 2)] | 19.1 nM | 304 nM | 45.9 | > 20000 | –
7 | Cc1ccccc1Nc1c(-c2ccnc(NC(=O)C(CC(F)F)c3ccc(F)cc3)c2)[nH]c2c1C(=O)NC(C)(C)C2 (single isomer, unassigned; enantiomer 2) [Example 137, N-{4-[6,6-dimethyl-3-(2-methylanilino)-4-oxo-4,5,6,7-tetrahydro-1H-pyrrolo[3,2-c]pyridin-2-yl]pyridin-2-yl}-4,4-difluoro-2-(4-fluorophenyl)butanamide (Enantiomer 2)] | 42.2 nM | 451 nM | 82.7 | – | > 20000
